According to article PMC9454246, “The PqsE Active Site as a Target for Small Molecule Antimicrobial Agents against Pseudomonas aeruginosa” (Biochemistry, 2022):

Legend:
PqsE [1] = target: T1, PqsE (Pseudomonas aeruginosa, UniProt P20581); assay: Competitive fluorescence polarization with the BB562 active site probe; conditions: competition with BB562 active site probe for binding to PqsE; one experiment performed in triplicate
T1 construct: made in house
Description: (a) Structures of the precursor molecules BB391 and BB393 and the hybrid derivative BB580. Positions denoted 1, 2, and 3 were derivatized to explore the binding affinity for the PqsE active site. […] Polarization value for PqsE-BB562 in the absence of a competitor is defined as 100% probe bound. All polarization values were background-subtracted by the reading for the probe in the absence of PqsE (background fluorescence). […] Both the BB584 molecule and key PqsE amino acid sidechains are shown as sticks. Amino acid sidechain carbons are depicted in gray and BB584 carbons are shown in tan. Iron atoms and water molecules are shown as orange and green spheres, respectively. Oxygen and nitrogen atoms are in red and blue, respectively. Hydrogen bonds are shown as dotted yellow lines.
6xHis-PqsE proteins were purified for biochemical assays (tagged) and crystallography (tag removed), as described previously.[24] Enzyme activities of purified 6xHis-PqsE variants were measured as previously reported with MU-butyrate as the substrate.[25] Fluorescence polarization assays with the BB562 active site probe were performed as described.[24] The melting temperature (Tm) of each purified 6xHis-PqsE variant was measured using DSF as described previously.[24] Interaction between PqsE and RhlR proteins in vitro was measured as described previously using pull-down assays.[24] Pyocyanin production by P. aeruginosa PA14 strains carrying pqsE variants on the pUCP18 plasmid was measured as described.[24] The ability of PqsE variants to increase RhlR transcription factor activity in an E. coli reporter assay was assessed as previously described.[24] All small molecule syntheses and characterization are described in the Supporting Information. […]
a Design of Hybrid Scaffold b Core Aromatic Group […]
Engaging Hydrophobic Groove […]
the amide bond orientation. b) Optimization of “position 2”, the core aromatic group. c) Optimization of “position 3”, the hydrophobic tail. Competition curves with the BB562 active site fluorescent probe were f it from the average of triplicates and erro r bars represent standard deviation s. Polarization value for PqsE-BB562 in the absence of competitor is defined as 100% Probe Bound. All polarization values were background-subtracted by the reading for the probe in the absence of PqsE (background fluorescence).

PqsE [2] = target: T1, PqsE; conditions: in words; cited from earlier work
PqsE–RhlR interaction = target: T2, PqsE–RhlR interaction (Pseudomonas aeruginosa, UniProt P20581); assay: PqsE–RhlR interaction (in vitro pull-down); format: binding; conditions: in words
T2 construct: made in house
Protocol: (§1) 6xHis-PqsE proteins were purified for biochemical assays (tagged) and crystallography (tag removed), as described previously.[24] Enzyme activities of purified 6xHis-PqsE variants were measured as previously reported with MU-butyrate as the substrate.[25] Fluorescence polarization assays with the BB562 active site probe were performed as described.[24] The melting temperature (Tm) of each purified 6xHis-PqsE variant was measured using DSF as described previously.[24] Interaction between PqsE and RhlR proteins in vitro was measured as described previously using pull-down assays.[24] Pyocyanin production by P. aeruginosa PA14 strains carrying pqsE variants on the pUCP18 plasmid was measured as described.[24] The ability of PqsE variants to increase RhlR transcription factor activity in an E. coli reporter assay was assessed as previously described.[24] All small molecule syntheses and characterization are described in the Supporting Information.

PqsE(D73A/E280A) = PqsE(D73A/E280A) (Pseudomonas aeruginosa, UniProt P20581, D73A/E280A); conditions: read-out: BB562 Binding Kapp; PqsE variant D73A/E280A; 2 µM MnCl2
Protocol: (§2) (a) Structure of PqsE(E182W) (blue) overlaid with that of WT PqsE (PDB: 2Q0I, gray). The active site iron atoms are shown in orange. […] (b) Structure of PqsE(E182W/E280A) (maroon) overlaid with that of WT PqsE (as in a). In panels a and b, residue E280 is shown in stick representation. […] Kapp was determined in two independent experiments performed in triplicate. (d) Hydrolysis of 4-methylumbelliferyl butyrate (MU-butyrate) by the designated purified PqsE proteins. Values are represented as % activity of WT PqsE protein. Results are the average of two independent experiments performed in triplicate. Error bars represent standard deviations. (e) First derivative plots (dF/dT is defined as the change in SYPRO Orange fluorescence divided by change in temperature) of melting curves for the designated PqsE proteins. The peak of each curve is defined as the Tm of that protein.
as §1
(§3) a Stability of PqsE Proteins WT
(§4) Hydrolysis of MU-butyrate
(§5) Fig. S3. Biochemical characterization of purified PqsE variants. a) First derivative plots of melt curves for
(§6) PqsE prot eins. All proteins were tested at 5 µM with 200 µM MnCl 2. dF/dT indicates the change in SYPRO
(§7) Orange fluorescence divided by the change in tempera ture.
(§8) Results are the average of two independent experiments performed in triplicate.
(§9) Error bars represent standard deviations.

PqsE(E182W/NI) = PqsE(E182W/NI) (Pseudomonas aeruginosa, UniProt P20581, E182W/R243A/R246A/R247A); conditions: read-out: BB562 Binding Kapp; PqsE variant E182W/NI; 2 µM MnCl2; error ND (could not be calculated)
Protocol: as §2, §1, §3, §4, §5, §6, §7, §8, §9

PqsE(NI) = PqsE(NI) (Pseudomonas aeruginosa, UniProt P20581, R243A/R246A/R247A); conditions: read-out: BB562 Binding Kapp; PqsE variant NI (R243A/R246A/R247A); 2 µM MnCl2
Protocol: as §2, §1, §3, §4, §5, §6, §7, §8, §9

PqsE(D73A/E182W) = PqsE(D73A/E182W) (Pseudomonas aeruginosa, UniProt P20581, D73A/E182W); conditions: read-out: BB562 Binding Kapp; PqsE variant D73A/E182W; 2 µM MnCl2; error ND (could not be calculated)
Protocol: as §2, §1, §3, §4, §5, §6, §7, §8, §9

PqsE(NI/E280A) = PqsE(NI/E280A) (Pseudomonas aeruginosa, UniProt P20581, E280A/R243A/R246A/R247A); conditions: read-out: BB562 Binding Kapp; PqsE variant NI/E280A; 2 µM MnCl2
Protocol: as §2, §1, §3, §4, §5, §6, §7, §8, §9

PqsE(E280A) = PqsE(E280A) (Pseudomonas aeruginosa, UniProt P20581, E280A); conditions: read-out: BB562 Binding Kapp; PqsE variant E280A; 2 µM MnCl2
Protocol: as §2, §1, §3, §4, §5, §6, §7, §8, §9

PqsE(E182W/E280A) = PqsE(E182W/E280A) (Pseudomonas aeruginosa, UniProt P20581, E182W/E280A)
Protocol: as §2, §1, §3, §4, §5, §6, §7, §8, §9

PqsE(D73A) = PqsE(D73A) (Pseudomonas aeruginosa, UniProt P20581, D73A); conditions: read-out: BB562 Binding Kapp; PqsE variant D73A; 2 µM MnCl2
Protocol: as §2, §1, §3, §4, §5, §6, §7, §8, §9

WT PqsE = WT PqsE (Pseudomonas aeruginosa, UniProt P20581); conditions: read-out: BB562 Binding Kapp, 2 µM MnCl2, two independent experiments in triplicate
Protocol: as §2, §1, §3, §4, §5, §6, §7, §8, §9

PqsE(D73A/NI) = PqsE(D73A/NI) (Pseudomonas aeruginosa, UniProt P20581, D73A/R243A/R246A/R247A); conditions: read-out: BB562 Binding Kapp; PqsE variant D73A/NI; 2 µM MnCl2; error ND (could not be calculated)
Protocol: as §2, §1, §3, §4, §5, §6, §7, §8, §9

PqsE(E182W) = PqsE(E182W) (Pseudomonas aeruginosa, UniProt P20581, E182W)
Protocol: as §2, §1, §3, §4, §5, §6, §7, §8, §9

In the case of `O=C(Nc1cccc(-c2ccn[nH]2)c1)c1cccc2cn[nH]c12` [BB391], the EC50 (PqsE [1]) is listed as 160 ± 54 nM, the “competition with the BB562 active site probe for binding to PqsE” value (PqsE [2]) is listed as “mid-nanomolar” and the “inhibition/disruption of the PqsE–RhlR interaction” value (“inhibition/disruption” for short) (PqsE–RhlR interaction) is listed as “none of the three compounds disrupt the PqsE–RhlR interaction”.
For `CCC(C)(CNC(=O)Nc1ccc(C(=O)Nc2nccs2)cc1)N1CCOCC1` (stereo not drawn) [BB393], the EC50 (PqsE [1]) is listed as 93 ± 29 nM, the “competition with the BB562 active site probe for binding to PqsE” value (PqsE [2]) is listed as “mid-nanomolar” and the “inhibition/disruption” value (PqsE–RhlR interaction) is listed as “none of the three compounds disrupt the PqsE–RhlR interaction”.
For `O=C(NCCCn1cc(-c2ccc(NC(=O)c3cccc4cn[nH]c34)cc2)nn1)c1ccc2c(c1)C(=O)OC21c2ccc(O)cc2Oc2cc(O)ccc21` [BB562], the Kd (PqsE(D73A/E280A)) was 468 ± 300 nM, the Kd (PqsE(E182W/NI)) was 4330 nM and the Kd (PqsE(NI)) was 428 ± 100 nM. It also gave a Kd (PqsE(D73A/E182W)) of 8120 nM, a Kd (PqsE(NI/E280A)) of 669 ± 220 nM and a Kd (PqsE(E280A)) of 210 ± 90 nM. The “binding affinity for the active site fluorescent probe” value (PqsE(E182W/E280A); PqsE(E182W/E280A), in words, relative to WT PqsE) was “WT binding affinity”, the Kd (PqsE(E182W/E280A); read-out: BB562 Binding Kapp, PqsE variant E182W/E280A, 2 µM MnCl2) was 418 ± 160 nM and the Kd (PqsE(D73A)) was 507 ± 380 nM. The Kd (WT PqsE) was 416 ± 170 nM, the Kd (PqsE(D73A/NI)) was 564 nM and the “binding affinity for the active site fluorescent probe” value (PqsE(E182W); PqsE(E182W), in words, relative to WT PqsE) was “reduced binding affinity”. For the same compound, the Kd (PqsE(E182W); read-out: BB562 Binding Kapp, PqsE variant E182W, 2 µM MnCl2) was 5730 ± 4000 nM.
Work on `CCC(C)(CNC(=O)Nc1ccc(NC(=O)c2cccc3cn[nH]c23)cc1)N1CCOCC1` (stereo not drawn) [BB580] yielded an EC50 (PqsE [1]) of 99 nM.
`CCC(C)(CNC(=O)Nc1ccc(C(=O)Nc2cccc3cn[nH]c23)cc1)N1CCOCC1` (stereo not drawn) [BB581] showed an EC50 (PqsE [1]) of 281 nM.
With `O=C(NCc1cnccn1)Nc1ccc(NC(=O)c2cccc3cn[nH]c23)cc1` [BB582] the EC50 (PqsE [1]) was 302 ± 141 nM.
With `O=C(NCc1ccccc1)Nc1ccc(NC(=O)c2cccc3cn[nH]c23)cc1` [BB583] the EC50 (PqsE [1]) was 71 nM.
For `CC(C)(C)CNC(=O)Nc1ccc(NC(=O)c2cccc3cn[nH]c23)cc1` [BB584], the EC50 (PqsE [1]) was 34 nM and the “inhibition/disruption” value (PqsE–RhlR interaction) was “none of the three compounds disrupt the PqsE–RhlR interaction”.
With `CCC(C)(CNC(=O)Nc1cnc(NC(=O)c2cccc3cn[nH]c23)s1)N1CCOCC1` (stereo not drawn) [BB585] the EC50 (PqsE [1]) was greater than 1000 nM.
With `CCC(C)(CNC(=O)Nc1cc(NC(=O)c2cccc3cn[nH]c23)[nH]n1)N1CCOCC1` (stereo not drawn) [BB586] the EC50 (PqsE [1]) was greater than 1000 nM.
In the case of `CCC(CNC(=O)Nc1ccc(NC(=O)c2cccc3cn[nH]c23)cc1)N1CCOCC1` (stereo not drawn) [BB587], the EC50 (PqsE [1]) is reported as 273 nM.
Compound `CC(CNC(=O)Nc1ccc(NC(=O)c2cccc3cn[nH]c23)cc1)N1CCOCC1` (stereo not drawn) [BB588] has an EC50 (PqsE [1]) of 290 nM.
For `CCC(C)(CNC(=O)Nc1ccc(NC(=O)c2cccc3cn[nH]c23)nc1)N1CCOCC1` (stereo not drawn) [BB589], the EC50 (PqsE [1]) was 608 ± 647 nM.
